According to the supplement of paper PMC10307832:

Compound: C=CCNC1=C2C[C@@H](C)C[C@H](OC)[C@H](O)[C@@H](C)/C=C(\C)[C@H](OC(N)=O)[C@@H](OC)/C=C\C=C(/C)C(=O)NC(=CC1=O)C2=O [17-AAG]
Assay: relative viability (nuclei count vs DMSO), 5 days (fraction); higher = more cells survive
Outline: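 A plate was accepted only when its control CV was below 25% and the cells had doubled at least once. Viability is defined from nuclear counts as treated wells divided by vehicle wells, with the median taken across plates. That median covers lung cancer cell lines grown in 1536-well plates, dosed by pinning at five √10-spaced library-drug concentrations, and counted in MetaXpress from 4× Hoechst images after 5 days.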

Cell Line | relative viability (0.00128 µM) | relative viability (0.004048 µM) | relative viability (0.0128 µM) | relative viability (0.04048 µM) | relative viability (0.128 µM)
NCI-H460 | 0.96 | 0.965 | 0.198 | 0.0341 | 0.0297
NCI-H1793 | 0.967 | 0.842 | 0.282 | 0.186 | 0.135
NCI-H23 | 0.949 | 0.851 | 0.289 | 0.177 | 0.147
HARA | 0.952 | 1.12 | 1 | 0.474 | 0.183
NCI-H1792 | 0.888 | 0.772 | 0.347 | 0.165 | 0.181
NCI-H1703 | 0.911 | 0.734 | 0.173 | 0.191 | 0.145
NCI-H2342 | 0.951 | 1.01 | 1.01 | 0.78 | 0.428
CAL-12T | 0.947 | 1.02 | 0.948 | 0.625 | 0.24
NCI-H838 | 1.03 | 0.963 | 0.575 | 0.187 | 0.177
NCI-H2085 | 0.994 | 0.95 | 0.99 | 0.919 | 0.76
NCI-H1395 | 0.79 | 0.818 | 0.648 | 0.388 | 0.342
NCI-H1648 | 0.888 | 1.08 | 0.839 | 0.673 | 0.59
NCI-H520 | 1.01 | 0.974 | 0.566 | 0.193 | 0.185
A549 | 0.948 | 0.86 | 0.115 | 0.0515 | 0.0401
IA-LM | 0.954 | 0.956 | 0.874 | 0.393 | 0.118
EKVX | 1 | 1.02 | 1.05 | 0.261 | 0.229
ChaGo-K-1 | 0.961 | 0.966 | 0.877 | 0.463 | 0.307
SW 900 | 0.831 | 0.727 | 0.312 | 0.155 | 0.141
NCI-H1755 | 1.01 | 0.943 | 0.897 | 0.433 | 0.238
NCI-H2228 | 1.08 | 0.72 | 0.125 | 0.112 | 0.152
NCI-H2087 | 0.984 | 0.767 | 0.16 | 0.177 | 0.134
LU99A | 0.909 | 0.867 | 0.627 | 0.369 | 0.169
NCI-H1355 | 0.983 | 0.974 | 0.899 | 0.193 | 0.159
NCI-H596 | 0.931 | 0.917 | 0.955 | 0.816 | 0.404
NCI-H727 | 0.989 | 0.922 | 0.858 | 0.5 | 0.344
NCI-H661 | 0.937 | 0.998 | 0.953 | 0.549 | 0.295
NCI-H650 | 0.894 | 1.01 | 0.798 | 0.511 | 0.264

Cell Line | relative viability (0.00128 µM) | relative viability (0.004048 µM) | relative viability (0.0128 µM) | relative viability (0.04048 µM) | relative viability (0.128 µM)
201T | 0.953 | 0.976 | 0.936 | 0.425 | 0.316
PC-14 | 0.967 | 0.742 | 0.398 | 0.108 | 0.0843
UMC-11 | 0.943 | 1.01 | 0.839 | 0.478 | 0.195
PC-3 [JPC-3] | 1.01 | 1.06 | 1.01 | – | 0.873
LK-2 | 1.17 | 1 | 0.816 | 0.519 | 0.159
COR-L23 | 0.987 | 1.02 | 1.01 | 0.668 | 0.147
NCI-H1944 | 0.863 | 0.915 | 0.896 | 0.251 | 0.178
HCC-78 | 0.935 | 1.02 | 1.01 | 0.727 | 0.425
NCI-H3122 | 0.99 | 0.867 | 0.29 | 0.155 | 0.134
SW 1573 | 0.973 | 0.95 | 0.542 | 0.151 | 0.104
EMC-BAC-2 | 1.13 | 0.986 | 0.889 | 0.396 | 0.362
NCI-H1650 | 0.89 | 0.477 | 0.197 | 0.2 | 0.144
NCI-H647 | 0.985 | 0.779 | 0.135 | 0.108 | 0.091
NCI-H522 | 0.805 | 1.09 | 0.782 | 0.602 | 0.433
LCLC-97TM1 | 0.905 | 0.974 | 0.768 | 0.677 | 0.123
H3255 | 0.995 | 0.973 | 0.948 | 0.313 | 0.243
LXF-289 | 1.01 | 1 | 0.872 | 0.167 | 0.121
NCI-H2347 | 0.958 | 0.998 | 1.13 | 0.557 | 0.385
LC-2-ad | 0.943 | 0.974 | 0.793 | 0.27 | 0.19
SK-MES-1 | 0.966 | 0.86 | 0.45 | 0.181 | 0.159
A-427 | 0.967 | 1.01 | 0.95 | 0.62 | 0.265
NCI-H441 | 0.857 | 0.693 | 0.223 | 0.192 | 0.105
HCC-366 | 1.02 | 1.04 | 0.49 | 0.0512 | 0.0477
NCI-H1975 | 0.909 | 0.889 | 0.372 | 0.16 | 0.167
NCI-H1437 | 1.03 | 0.931 | 0.637 | 0.249 | 0.178
NCI-H2009 | 0.961 | 0.995 | 0.93 | 0.894 | 0.274
NCI-H1651 | 0.955 | 0.964 | 0.945 | 0.681 | 0.335

Cell Line | relative viability (0.00128 µM) | relative viability (0.004048 µM) | relative viability (0.0128 µM) | relative viability (0.04048 µM) | relative viability (0.128 µM)
LCLC-103H | 1.02 | 1 | 0.957 | 1.04 | 1.07
NCI-H1666 | 1.01 | 0.913 | 0.723 | 0.47 | 0.364
NCI-H1734 | 0.98 | 1.02 | 0.839 | 0.284 | 0.15
EPLC-272H | 1.02 | 0.968 | 0.663 | 0.159 | 0.104
NCI-H2023 | 0.919 | 0.724 | 0.122 | 0.0716 | 0.0728
BEN | 1.01 | 1.1 | 1.11 | 0.829 | 0.36
COR-L 105 | 0.917 | 0.966 | 1 | 0.488 | 0.547
ABC-1 | 0.916 | 0.978 | 1.09 | 0.892 | 0.708
HCC-15 | 0.94 | 0.923 | 0.557 | 0.14 | 0.122
NCI-H2170 | 1.01 | 0.973 | 0.605 | 0.178 | 0.168
RERF-LC-KJ | 1.03 | 1.05 | 0.669 | 0.284 | 0.26
NCI-H1993 | 0.937 | 0.909 | 0.611 | 0.476 | 0.432
NCI-H358 | 0.889 | 0.532 | 0.119 | 0.115 | 0.103
NCI-H1563 | 1.03 | 0.893 | 0.599 | 0.629 | 0.519
EBC-1 | 1.02 | 0.882 | 0.166 | 0.15 | 0.132
NCI-H1915 | 0.917 | 0.966 | 0.952 | 0.152 | 0.0877
SK-LU-1 | 1.06 | 0.796 | 0.315 | 0.229 | 0.181
LOU-NH91 | 0.928 | 0.819 | 0.571 | 0.435 | 0.354
NCI-H2405 | 1.02 | 0.957 | 0.663 | 0.251 | 0.236
NCI-H2126 | 1.01 | 0.995 | 0.957 | 0.435 | 0.26
HCC-827 | 1.05 | 0.997 | 1.02 | – | 0.77
Calu-6 | 1.02 | 0.984 | 0.946 | 0.3 | 0.148
NCI-H322M | 0.95 | 0.967 | 0.483 | 0.346 | 0.325
HOP-62 | 1.03 | 0.881 | 0.904 | 0.436 | 0.126
HCC-44 | 1 | 0.976 | 0.992 | 0.278 | 0.19
